From ChEMBL document CHEMBL1201862, “PubChem BioAssay data set” (2004) come the findings set out here.

Among the test systems are HCT-15; SN12C; SK-MEL-5; UACC-257; TK-10; SK-MEL-2; UACC-62; OVCAR-3; HOP-62; MOLT-4; CCRF-CEM; DU-145; NCI-H226; MCF7; U-251.
Common to all, as to assay: growth of human tumour cells (NCI), 48 h

Each structure is given as a SMILES string.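 A five-concentration, 48-hour dose response in 96-well plates underlies each endpoint, interpolated linearly between surrounding concentrations. GI50 = concentration required for 50% inhibition of growth.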 Active and inactive are the calls of the source. Cut-off read from the data, not from the text of the source: active = GI50 up to about 1.1 µM and inactive = higher.

Consider `CC(C)(C)c1ccc(OCCOc2ccc(C(C)(C)C)cc2NC=O)c(NC=O)c1`, for which the GI50 was 3.81 µM in the assay with HCT-15; 15 µM (inactive) with SN12C; 4.13 µM (inactive) in the assay with SK-MEL-5; 5.85 µM (inactive) in the assay on UACC-257; 15.1 µM (inactive) with TK-10; 14.9 µM (inactive) in the assay with SK-MEL-2. Moreover, the GI50 with UACC-62 was 12.5 µM (inactive); in the assay on OVCAR-3, 14.4 µM (inactive); in the assay on HOP-62, 6.92 µM (inactive); with MOLT-4, 2.79 µM (inactive); in the assay with CCRF-CEM it was 2.06 µM (inactive); with DU-145, 17.9 µM (inactive). Further, the results for the GI50 in the assay with NCI-H226, in the assay on MCF7 and in the assay with U-251 were 10.8 µM (inactive), 4.7 µM (inactive) and 6.82 µM (inactive), respectively.

In the case of `CC1(C)OCC(C2OC3OC(C)(C)OC3C2c2ccccc2)O1` (centres undefined), the GI50 in the assay on HCT-15 was 24.2 µM; with SN12C it was 26.7 µM (inactive); in the assay with SK-MEL-5, 17.1 µM (inactive); with UACC-257, 36.1 µM (inactive); with TK-10, 32.1 µM (inactive); with SK-MEL-2, 22.1 µM (inactive). In addition, the GI50 is 27 µM (inactive) with UACC-62; 34.4 µM (inactive) with OVCAR-3; 49 µM (inactive) in the assay on HOP-62; 22.4 µM (inactive) in the assay on MOLT-4; 30.5 µM (inactive) in the assay with CCRF-CEM; 45.6 µM (inactive) with DU-145. Moreover, the GI50 in the assay with NCI-H226 was 22.4 µM (inactive); in the assay with MCF7, 50.7 µM (inactive); in the assay on U-251, 78 µM (inactive).

For `CC1(C)CCCOc2cccc(c2)OCCCC(C)(C)C1=O`, the GI50 in the assay with HCT-15 is 35.5 µM; in the assay with SN12C it was 45.3 µM (inactive); in the assay on SK-MEL-5 it was 18.4 µM (inactive); with TK-10 it was > 100 µM (inactive); in the assay with SK-MEL-2 it was 24.9 µM (inactive); in the assay with UACC-62, 19.1 µM (inactive). Besides, the GI50 in the assay on OVCAR-3 was 22 µM (inactive); with HOP-62 it was 30.6 µM (inactive); in the assay with MOLT-4, 12.8 µM (inactive); in the assay on CCRF-CEM, 16.5 µM (inactive); with DU-145, 85.3 µM (inactive); in the assay on NCI-H226, 25.5 µM (inactive). Besides, the GI50 was 31 µM (inactive) with MCF7 and 35.2 µM (inactive) with U-251.

With `C/C(=C1\C(=O)C(c2ccccc2)N(c2ccccc2)C1=O)c1ccc(Cl)cc1` (centres undefined), the GI50 in the assay with HCT-15 was 19.1 µM; in the assay with SN12C it was 30.7 µM (inactive); in the assay on SK-MEL-5, 14.5 µM (inactive); with UACC-257, 16.9 µM (inactive); with TK-10, 22 µM (inactive); in the assay on SK-MEL-2, 20.1 µM (inactive). For the same molecule, the GI50 is 16.3 µM (inactive) in the assay on UACC-62; 15.6 µM (inactive) in the assay on OVCAR-3; 23.1 µM (inactive) in the assay on HOP-62; 31.6 µM (inactive) in the assay on MOLT-4; 18.7 µM (inactive) in the assay on DU-145; 18.4 µM (inactive) with NCI-H226. Also, the GI50 in the assay with MCF7 was 35.1 µM (inactive); with U-251, 15.9 µM (inactive).

With `NC(=O)C(=O)c1ncn(Cc2ccccc2)c1N`, the GI50 in the assay on HCT-15 is greater than 100 µM; in the assay on SN12C, > 100 µM (inactive); in the assay on SK-MEL-5, > 100 µM (inactive); in the assay with UACC-257 it was > 100 µM (inactive); in the assay with TK-10, > 100 µM (inactive); in the assay on SK-MEL-2, > 100 µM (inactive). Besides, the GI50 in the assay on UACC-62, in the assay on OVCAR-3, in the assay on HOP-62, with CCRF-CEM, in the assay with DU-145 and in the assay with NCI-H226 was > 100 µM (inactive) in each case. Further, the GI50 in the assay with MCF7 and with U-251 was > 100 µM (inactive) in each case.

As for `CC1(C)Oc2ccc3c(=O)cc(-c4ccc(F)cc4)oc3c2C1C(=O)O` (centres undefined), the GI50 in the assay on SN12C, with SK-MEL-5, with UACC-257, with TK-10, in the assay on SK-MEL-2 and in the assay on UACC-62 was > 100 µM (inactive) throughout. The GI50 in the assay with OVCAR-3, in the assay on HOP-62, in the assay on MOLT-4, in the assay on CCRF-CEM, in the assay on DU-145 and in the assay on NCI-H226 was > 100 µM (inactive) throughout. The GI50 with MCF7 and in the assay on U-251 was > 100 µM (inactive) throughout.

Consider `COc1ccc(CC2Cc3ccccc3CCN2)cc1OC` (centres undefined), for which the GI50 in the assay with HCT-15 was greater than 50 µM; in the assay on SN12C it was > 50 µM (inactive); in the assay on UACC-257, 21.6 µM (inactive); in the assay on SK-MEL-2, > 50 µM (inactive); in the assay with UACC-62, > 50 µM (inactive); with OVCAR-3, > 50 µM (inactive). In addition, the GI50 in the assay with HOP-62 was 40.5 µM (inactive); in the assay with MOLT-4, 20.3 µM (inactive); with CCRF-CEM, 28.5 µM (inactive); in the assay on DU-145 it was > 50 µM (inactive); with NCI-H226, 12.1 µM (inactive); with MCF7 it was > 50 µM (inactive). Moreover, the GI50 in the assay on U-251 is > 50 µM (inactive).

As to `CCN(CC)Cc1sc2nc3ccccc3n2c1-c1ccc(OC)cc1`, the GI50 in the assay on HCT-15 is 12.6 µM; in the assay with UACC-257, > 100 µM (inactive); in the assay on TK-10, 79.6 µM (inactive); in the assay with SK-MEL-2 it was 43.4 µM (inactive); in the assay on UACC-62 it was 34.8 µM (inactive); with OVCAR-3 it was 21.3 µM (inactive). Also, the GI50 in the assay with HOP-62 is 65.5 µM (inactive); in the assay with MOLT-4 it was 19.6 µM (inactive); with CCRF-CEM, 17.1 µM (inactive); in the assay with DU-145 it was 35.4 µM (inactive); in the assay on NCI-H226, 22.8 µM (inactive); with MCF7 it was 23 µM (inactive). In the assay on U-251, the GI50 is 29.2 µM (inactive).

As to `CC[C@@]1(N(C)C)C(=O)OCc2c1cc1n(c2=O)Cc2cc3ccccc3nc2-1`, the GI50 in the assay on HCT-15 was 45.3 µM; in the assay with SK-MEL-5 it was 69.3 µM (inactive); in the assay on UACC-257, > 100 µM (inactive); in the assay with TK-10, 48.2 µM (inactive); in the assay on SK-MEL-2, 26.4 µM (inactive); in the assay on UACC-62 it was 22.1 µM (inactive). In addition, the GI50 in the assay with OVCAR-3 is 27.8 µM (inactive); in the assay on HOP-62, 16.9 µM (inactive); in the assay on CCRF-CEM, 18.5 µM (inactive); in the assay with DU-145 it was 21.1 µM (inactive); in the assay with NCI-H226 it was 22.4 µM (inactive); in the assay on MCF7 it was 32.1 µM (inactive). For the same molecule, in the assay with U-251, the GI50 was 29.2 µM (inactive).

Consider `CC(C)C1=CC23CCC4C(C)(C(=O)O)CCCC4(C)C2CC1C1C(=O)N(CCCCCCN2C(=O)C4C5CC6C7(C)CCCC(C)(C(=O)O)C7CCC6(C=C5C(C)C)C4C2=O)C(=O)C13` (centres undefined), for which the GI50 in the assay on HCT-15 is 14.8 µM; in the assay on SN12C, 14 µM (inactive); in the assay with SK-MEL-5, 14 µM (inactive); with TK-10 it was 16.2 µM (inactive); in the assay with SK-MEL-2, 13.8 µM (inactive); in the assay on UACC-62, 37.8 µM (inactive). The GI50 is 13.9 µM (inactive) in the assay on OVCAR-3; > 10 µM (inactive) with HOP-62; 6.17 µM (inactive) with MOLT-4; 7.29 µM (inactive) with CCRF-CEM; > 10 µM (inactive) in the assay on DU-145; > 10 µM (inactive) in the assay with NCI-H226. Also, the GI50 in the assay with MCF7 was 6.76 µM (inactive); in the assay on U-251, 4.08 µM (inactive).
